Here are results for nine molecules from PubChem BioAssay (NCI).

Structures are written as SMILES. Values joined by “and” are separate entries in the source; they are usually repeats but may differ in a detail not shown here. Equal values may be shown once.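 Cultured in 96-well plates, cells were exposed to test compound for 48 hours across five concentrations. GI50 = concentration required for 50% inhibition of growth. TGI: total growth inhibition.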 A value given as a limit tells only on which side of the number the result lay.

Assay in all cases: NCI anticancer screen, dose series, 48 h
The test system of assay [1] is A549 NSCLC.
The subject of assay [2] is CCRF-CEM leukemia.
The test system of assay [3] is HCC-2998 colon.
In assay [4] the test system is HL-60(TB) leukemia.
Assay [5] has as its system HOP-92 NSCLC.
Assay [6] has as its system NCI-H226 lung.
The subject of assay [7] is NCI-H460 lung.
For assay [8], the system named is RXF 393 renal.
Assay [9] has as its system SK-MEL-5 melanoma.
The subject of assay [10] is SNB-75 CNS.

As to `CCCCCCCCCCN=C(c1ccc(N(C)C)cc1)c1ccc(N(C)C)cc1`, the GI50 is 2.53 µM in assay [1]; 1.78 µM in assay [2]; 5.07 µM in assay [3]; 0.954 µM in assay [4]; 1.92 µM in [5]; 10.8 µM in [6]. Besides, the GI50 in [7] was 0.437 µM; in assay [8], 1.66 µM; in [9], 0.67 µM; in assay [10], 0.4 µM. In addition, the TGI is more than 77.6 µM in assay [1]; more than 77.3 µM in assay [2]; more than 88.6 µM in [3]; 18.9 µM in [4]; 26.5 µM in assay [5]; more than 81.3 µM in assay [6]. Also, the TGI was determined as 24.5 µM in [7], 9.87 µM in assay [8], 18.4 µM in [9] and 6.69 µM in assay [10].
With `C=C1CC2(OC1=O)C(=O)N(CCCN1C(=O)C3(CC(=C)C(=O)O3)c3ccccc31)c1ccccc12` (stereo not drawn), the GI50 in assay [1] is 10.4 µM; in [2] it was 0.416 µM; in [3], 2.14 µM; in assay [4], 0.831 µM; in [5], 1.33 µM; in assay [6] it was 2.01 µM. The GI50 was 3.94 µM in [7], 1.32 µM in assay [8], 4.96 µM in assay [9] and 3.44 µM in assay [10]. Also, the TGI in assay [1] stood at 24 µM; in assay [2], 2.5 µM; in assay [3], 4.53 µM; in assay [4] it was 2.85 µM; in [5], 2.76 µM; in assay [6] it was 6.64 µM. Moreover, the TGI came to 18.5 µM in assay [7], 2.83 µM in assay [8], 16.7 µM in assay [9] and 26.8 µM in assay [10].
Take `CNC(SC)=C1C(=O)OC(C)(C)OC1=O`: the TGI in [1], in [2], in assay [3], in assay [4], in assay [5] and in assay [6] was more than 100 µM each time. For the same molecule, the TGI in [7], in assay [8], in assay [9] and in [10] was more than 100 µM in each case.
In the case of `CC(CC(=O)Nc1ccc(NC(=O)CC(C)N=NC(N)=S)cc1)N=NC(N)=S` (stereo not drawn), the TGI in assay [1], in [2], in assay [3], in assay [4], in assay [5] and in assay [6] was more than 100 µM throughout. The TGI in assay [7], in assay [8], in [9] and in assay [10] was more than 100 µM throughout.
Regarding `CCN(CC)CCNC(=O)c1c(C)[nH]c(/C=C2\C(=O)Nc3ccc(F)cc32)c1C`, the GI50 was 5.52 µM and 2.97 µM and 3.85 µM in assay [1]; 5.62 µM and 6.48 µM and 1.89 µM in assay [2]; 0.353 µM and 2.42 µM and 0.847 µM in [4]; 0.831 µM and 0.439 µM in assay [5]; 5.22 µM and 5.72 µM and 8.46 µM in assay [6]; 2 µM and 2.19 µM in [7]. The GI50 is 1.19 µM and 1.45 µM and 1.38 µM in assay [8]; 1.66 µM and 2.88 µM and 1.5 µM in assay [9]; 4.61 µM and 2.11 µM and 4.33 µM in assay [10]. For the same molecule, the TGI in [1] was > 10 µM and 6.44 µM and 17.6 µM; in assay [2] it was > 10 µM and 20 µM and 8.85 µM; in assay [3], > 10 µM and 7.03 µM and 3.06 µM; in assay [4], 4.34 µM and 6.34 µM and 4.13 µM; in [5], 9.01 µM and 3.05 µM; in assay [6], > 10 µM and 20 µM and 23.4 µM. In addition, the TGI in assay [7] was > 10 µM and 5.78 µM and 13.1 µM; in assay [8], 8.47 µM and 4.56 µM and 4.37 µM; in assay [9], 4.5 µM and 5.62 µM and 2.92 µM; in assay [10], > 10 µM and 4.55 µM and 14 µM.
Consider `Cc1nc(Nc2n[nH]c3c2CN(C(=O)N[C@H](CN(C)C)c2ccccc2)C3(C)C)c2sccc2n1`, for which the GI50 was 0.0911 µM and 0.291 µM in [1]; 0.286 µM and 0.4 µM in [2]; 0.0135 µM and 0.0453 µM in assay [3]; 0.0189 µM and 0.0564 µM in [4]; 0.341 µM and 0.302 µM in assay [6]; 0.0132 µM and 0.0223 µM in assay [7]. The GI50 in [8] was 0.143 µM and 0.751 µM; in assay [9] it was 0.142 µM and 0.162 µM; in assay [10], 0.206 µM and 0.284 µM. Besides, the TGI in [1] was more than 50.9 µM; in [2], more than 25.1 µM; in assay [3] it was 2.22 µM and 3.98 µM; in assay [4] it was 2.03 µM and 3.43 µM; in assay [5], 2.7 µM and 0.47 µM; in [6] it was > 5.18 µM and 5.01 µM. Besides, the TGI is > 4.07 µM and 10.7 µM in assay [7]; 1.89 µM and 2.53 µM in assay [8]; 1.84 µM and 2.26 µM in [9]; 2.23 µM and 2.82 µM in [10].
With `CC1=C(C(=O)Nc2ccccc2C)C(/C=C/c2ccccc2)C(C(=O)Nc2ccccc2C)=C(C)N1`, the TGI in assay [1], in [2], in assay [3], in assay [4], in assay [5] and in assay [6] was more than 100 µM each time. For the same molecule, the TGI in [7], in [8], in [9] and in assay [10] was more than 100 µM throughout.
`O=C/C(=C(/Cl)c1ccc(O)cc1)c1ccccc1`: the TGI was more than 84.6 µM in [1]; more than 100 µM in [2]; more than 100 µM in assay [3]; more than 100 µM in assay [4]; 50.7 µM in assay [5]; more than 100 µM in assay [6]. In addition, the TGI was more than 100 µM in assay [7], 57.2 µM in assay [8], 48.9 µM in [9] and more than 67.2 µM in assay [10].
Regarding `O=C(/C=C/c1ccccc1)CC(c1ccccc1)N1CCOCC1` (stereo not drawn), the GI50 in assay [1] is 11.7 µM; in [2], 2.42 µM; in assay [3], 1.9 µM; in assay [4], 3.68 µM; in assay [5], 3.59 µM; in assay [6], 5.39 µM. In addition, the GI50 in [7] was 15.5 µM; in assay [8], 1.61 µM; in assay [9] it was 4.87 µM; in assay [10], 12.5 µM. Also, the TGI in assay [1] was found to be 29 µM; in [2], 7.3 µM; in assay [3], 3.54 µM; in assay [4] it was 18.1 µM; in assay [5], 18.3 µM; in assay [6] it was 24.2 µM. The TGI was 33.2 µM in assay [7], 3.03 µM in assay [8], 17.5 µM in assay [9] and 27.7 µM in assay [10].
